Results taken from patent US8063094B2, “Anti-cytokine heterocyclic compounds” (Boehringer Ingelheim International GmbH, priority 2007, dated 2011).

melting point: 266 to 268 °C (dec.)
Compound: CNCCCc1c(C(=O)O)[nH]c2ccc(C(N)=O)cc12 [Example 13, 5-carboxamide-3-(3-methylaminopropyl)-1H-indole-2-carboxylic acid]
